Reference: article PMC4201456, “Cytoxicity and Apoptotic Mechanism of Ruthenium(II) Amino Acid Complexes in Sarcoma-180 Tumor Cells” (PLoS ONE, 2014)

Tests used:
L929 normal cells = experiment: MTT cell viability assay, L929 normal cells; type: cell-based, murine; details: L929 normal cell line, 48 h
Method: The murine sarcoma-180 tumor cells (S180) (ATCC# TIB-66) and normal murine fibroblast cells (L-929) (ATCC# CCL-1) were cultured in suspension in RPMI 1640 and DMEM media (Sigma Chemical Co., MO), respectively, supplemented with 10% fetal calf serum, 100 µg/mL penicillin, and 100 µg/mL streptomycin. The cultures were incubated in a humidified incubator (Thermo Scientific) at 37°C with 5% CO2.
The cytotoxic effects of the amino acid ruthenium complexes were evaluated using an MTT assay with S180 tumor cells and L929 normal cells as described previously. Briefly, 1.0×10^5 S180 cells and 2.0×10^4 L929 cells were plated in 96-well tissue culture plates and treated with different concentrations of amino acid ruthenium complexes (0.2–200 µM) for 48 h. After treatment, 10 µL of MTT (5 mg mL^−1) was added to each well, and the plates were incubated at 37°C for an additional 3 h. The purple formazan crystals were dissolved in 50 µL of SDS, and the absorbance was determined at 545 nm using a Stat Fax 2100 microplate reader (Awareness Technology, Palm City, FL, USA). The cell viability was calculated as follows: viability (%) = (absorbance of the treated wells)/(absorbance of the control wells) ×100. The IC50 (complex concentration (µM) that results in a 50% reduction in cellular viability) was obtained from dose-response curves using GraphPad Prism 4.02 for Windows (GraphPad Software, San Diego, CA, USA).

S180 tumor cells = experiment: Annexin V-FITC/PI double staining, flow cytometry; type: cell-based, murine
Method: The cell death of S180 tumor cells was examined using the Annexin V-FITC Apoptosis Detection Kit (BD Biosciences) according to the manufacturer's instructions. S180 cells were treated with complex 2 (40 µM and 60 µM) for 24 h and 48 h. Briefly, 5.0×10^5 cells were harvested and washed with PBS. The cells were re-suspended in 400 µL of binding buffer. Next, 5 µL of Annexin V-FITC and 1 µL of PI were added. Flow cytometric analysis was performed immediately after supravital staining. Data acquisition and analysis were performed on a flow cytometer (FACSCalibur, BD Biosciences) using Cell Quest software. The criteria for positivity in cells in early stages of apoptosis were Annexin V-positive and PI-negative, whereas the criteria for cells in the late stages of apoptosis were both Annexin V-positive and PI-positive.

p53 = experiment: Real-time RT-PCR gene expression, p53; type: cell-based, murine; details: S180 cells, 40 µM, 6 h; p>0.05
Method: (§1) The S180 cells were treated with 40 µM complex 2 for 6 h. Total RNA was extracted with Trizol reagent (Sigma-Aldrich, USA) following the manufacturer's protocol. Total RNA (2.0 µg) was used to produce complementary DNA (cDNA) with random primers (Applied Biosystems, USA) in a 20 µL reaction mixture according to the manufacturer's protocol.
(§2) Real-time PCR was carried out using a Line Gene K (Bioer Technology) instrument. Real-time PCR reactions were carried out in a 20 µL reaction mixture, including 2 µL of cDNA, 10 µL of SYBR Green PCR Master Mix (LGC Biotechnology, UK), and 2.0 µL of 400 nM forward and reverse primers. The PCR program was initiated at 95°C for 15 min followed by 40 cycles of 95°C for 15 s, 55°C for 15 s, and 72°C for 30 s. The data were analyzed according to the comparative Ct method and were normalized to the β-actin reference gene expression in each sample.

S180 cells [1] = experiment: Cell cycle analysis by PI flow cytometry; type: cell-based, murine
Method: The S180 cells were treated with complex 2 (40 µM and 60 µM) for 24 h and 48 h. Briefly, 5.0×10^5 cells were harvested by centrifugation, washed with phosphate-buffered saline (PBS), fixed with 70% (v/v) cold ethanol and stored overnight at −20°C. The fixed cells were washed with PBS and incubated with propidium iodide (PI; Sigma-Aldrich) containing 0.05% RNase. The samples were incubated at 4°C in the dark and analyzed by flow cytometry (FACS Calibur, BD Biosciences). The percentage of cells in the G0/G1, S, G2/M and sub-G1 phases was analyzed using ModFit software.

bax = experiment: Real-time RT-PCR gene expression, bax; type: cell-based, murine; details: S180 cells, 40 µM, 6 h; normalized to β-actin
Method: as §1, §2

S180 cells [2] = experiment: Mitochondrial membrane potential, JC-1 flow cytometry; type: cell-based, murine; details: 24 h; for percentage of cells with depolarized mitochondria: control 11.5%; for percentage of cells showing red fluorescence (upper-right quadrant): control 88.5%
Method: The effect of complex 2 on the mitochondrial membrane potential (ΔΨm) was measured using JC-1 dye (BD Biosciences) by flow cytometry according to the manufacturer's instructions. Briefly, 3.0×10^5 S180 cells were treated with complex 2 (40 µM and 60 µM) for 24 h. After incubation, the cells were harvested and washed with PBS. The cells were then incubated with JC-1 dye (BD Biosciences) for 15 min at 37°C in the dark. The stained cells were washed, resuspended in assay buffer, and immediately analyzed by flow cytometry. The data were analyzed using the Cell Quest software.

pBR322 plasmid DNA = experiment: Atomic force microscopy of plasmid DNA; type: binding; details: incubated 24 h at 37°C
Method: For the atomic force microscopy (TMAFM) experiment, the pBR322 plasmid was heated at 60°C for 10 minutes to obtain the OC form. The concentration of the stock solution was 1 mg/mL in HEPES buffer (4 mM HEPES (pH 7.4) and 2 mM MgCl2. Each sample contained 1 µL of pBR322 plasmid at a concentration of 0.25 µg/µL in a final volume of 40 µL. The amount of complex 2 added is expressed as ri. AFM samples were prepared by casting a 3 µL drop of test solution onto freshly cleaved muscovite green mica disks as the support. The drop was allowed to stand undisturbed for 3 minutes to favor the adsorbate-substrate interaction. Each DNA-laden disk was rinsed with Milli-Q water and was blown dry with clean compressed argon gas directed normal to the disk surface. The samples were stored over silica prior to AFM imaging. All AFM observations were made with a Nanoscope III Multimode AFM (Digital Instruments, Santa Barbara, CA). Nanocrystalline Si cantilevers ([…] in length) with an average spring constant of 50 N/m terminating in conical-shaped Si probe tips (10 nm apical radius and cone angle of 35°) were utilized. High-resolution topographic AFM images of 2×2 µm areas of different specimens were obtained in air at room temperature (relative humidity <40%). The AFM was operated in intermittent contact mode at a rate of 1–3 Hz.

F[P-](F)(F)(F)(F)F.NCC(=O)[O-].[Ru+2].c1ccc(-c2ccccn2)nc1.c1ccc(P(CCCCP(c2ccccc2)c2ccccc2)c2ccccc2)cc1 [Complex 2, [Ru(gly)(bipy)(dppb)]PF6]
IC50 (L929 normal cells): 51.6 ± 1.22 µM | cells in early apoptosis (Annexin V+ and PI-) (S180 tumor cells; 40 µM, 24 h): 19.76% | cells in late apoptosis (Annexin V+ and PI+) (S180 tumor cells; 40 µM, 24 h): 22.76% | cells in early apoptosis (Annexin V+ and PI-) (S180 tumor cells; 40 µM, 48 h): 42.59% | cells in late apoptosis (Annexin V+ and PI+) (S180 tumor cells; 40 µM, 48 h): 25.16% | cells in early apoptosis (Annexin V+ and PI-) (S180 tumor cells; 60 µM, 24 h): 22.48% | cells in late apoptosis (Annexin V+ and PI+) (S180 tumor cells; 60 µM, 24 h): 31.67% | cells in early apoptosis (Annexin V+ and PI-) (S180 tumor cells; 60 µM, 48 h): 47.48% | cells in late apoptosis (Annexin V+ and PI+) (S180 tumor cells; 60 µM, 48 h): 30.24% | expression level of p53 compared with control (p53): remained unchanged | fraction of G0/G1 cells (S180 cells [1]; 40 µM, 24 h, control 23.6%): 61.07% | fraction of G0/G1 cells (S180 cells [1]; 40 µM, 48 h, control 41.55%): 59.94% | fraction of G0/G1 cells (S180 cells [1]; 60 µM, 24 h, control 23.6%): 56.09% | fraction of G0/G1 cells (S180 cells [1]; 60 µM, 48 h, control 41.55%): 59.86% | expression level of the bax gene compared to untreated control (bax): 2.75 fold | percentage of cells with depolarized mitochondria (S180 cells [2]; 40 µM): 45.2% | percentage of cells showing red fluorescence (upper-right quadrant) (S180 cells [2]; 40 µM): 54.3% | percentage of cells with depolarized mitochondria (S180 cells [2]; 60 µM): 52.6% | percentage of cells showing red fluorescence (upper-right quadrant) (S180 cells [2]; 60 µM): 47.1% | interaction with pBR322 plasmid DNA (AFM images) (pBR322 plasmid DNA): did not covalently bind to DNA bases or intercalate between bases
